Legend:
[1] = Heat treatment test under nitrogen protection (crystal transformation); assay type: physicochemical; details: for crystal transformation on heating: nitrogen
Source text: At the same time, the above crystal transformation phenomenon can also be confirmed by the absorption/exothermic peaks appearing in FIG. 7 and FIG. 11.

[2] = Suspension competition test of mixed crystalline forms A/B/C/D in saturated solution (thermodynamic transition); assay type: physicochemical
Method: To study the thermodynamic transition relationship of the four anhydrous polymorphs (respectively corresponding to A/B/C/D), samples (each sample was about 5 mg) having crystalline forms A/B/C/D were mixed and added respectively under the conditions of 5° C./room temperature (about 20° C.)/50° C./90° C. to a saturated solution of the compound of formula I (for example, ethanol or methyl tert-butyl ether) (about 1.0 mL), and stirred (magnetic stirring, about 800 rpm). solid was separated (centrifugation, about 10000 rpm, 1 min), and XRPD test was performed.

[3] = Dynamic vapor sorption (DVS) hygroscopicity evaluation, with XRPD before and after; assay type: physicochemical
Method: The DVS curves were collected on a DVS Intrinsic Dynamic Moisture Sorption meter from SMS (Surface Measurement Systems). The relative humidity at 25° C. was corrected with the deliquescence points of LiCl, Mg (NO3)2 and KCl.

[4] = Pharmacokinetic study, skin application to SD rats; assay type: in vivo, SD rats (Sprague-Dawley rats); details: for ratio of AUC(0-t) on day 7 to day 1: 12 mg/kg skin application once a day for 7 days
Source text: The obtained blood concentration data were simultaneously used to calculate the relevant pharmacokinetic parameters using the pharmacokinetic processing software WinNonlin v5.2 […] for plasma pharmacokinetic characterization analysis.

[5] = Solid-state stability, one week storage, tested by XRPD and HPLC; assay type: physicochemical; details: for Purity (Peak area %) / Relative purity (%/Control): one week; for Purity (Peak area %): HPLC; for Relative purity (%/Control): vs 5° C. sealed control
Source text: Samples were removed after one week, and the obtained samples were characterized and tested by XRPD and HPLC to respectively detect changes in crystalline form and purity.

Structure (SMILES): COc1c(C#N)ccc(N2C(=O)C(C)(C)N(c3ccc(C)nc3)C2=S)c1F [crystalline form A, 4-[4,4-dimethyl-3-(6-methylpyridin-3-yl)-5-oxo-2-thioxoimidazolidin-1-yl]-3-fluoro-2-methoxybenzonitrile]
- crystal transformation on heating ([1]; heated to about 160° C. and then cooled to room temperature): transformed into crystalline form B
- crystal transformation by suspension agitation ([2]; less than 90° C.): transformed into the form D

Structure (SMILES): COc1c(C#N)ccc(N2C(=O)C(C)(C)N(c3ccc(C)nc3)C2=S)c1F [crystalline form B, 4-[4,4-dimethyl-3-(6-methylpyridin-3-yl)-5-oxo-2-thioxoimidazolidin-1-yl]-3-fluoro-2-methoxybenzonitrile]
- relative stability of the crystalline form ([1]; under heating conditions): more stable than crystalline forms A/C

Structure (SMILES): COc1c(C#N)ccc(N2C(=O)C(C)(C)N(c3ccc(C)nc3)C2=S)c1F [crystalline form C, 4-[4,4-dimethyl-3-(6-methylpyridin-3-yl)-5-oxo-2-thioxoimidazolidin-1-yl]-3-fluoro-2-methoxybenzonitrile]
- crystal transformation on heating ([1]; further heated to about 166° C. and cooled to room temperature): transformed into crystalline form B
- crystal transformation on heating ([1]; heated to about 148° C.): transformed into crystalline forms B/D

Structure (SMILES): COc1c(C#N)ccc(N2C(=O)C(C)(C)N(c3ccc(C)nc3)C2=S)c1F [crystalline form D, 4-[4,4-dimethyl-3-(6-methylpyridin-3-yl)-5-oxo-2-thioxoimidazolidin-1-yl]-3-fluoro-2-methoxybenzonitrile]
- relative stability of the crystalline form ([2]; at room temperature): more stable than the crystalline forms A/B/C
- hygroscopicity (conclusion in words) ([3]; DVS, 0% RH to 80% RH, 25° C.): almost no hygroscopicity
- crystalline form before and after the DVS test (XRPD) ([3]; before vs after DVS experiment): maintained the same crystalline form
- water absorbed (moisture absorption, DVS) ([3]; relative humidity increased from 0% RH to 80% RH, 25° C.): 0.14 wt %
- ratio of AUC(0-t) on day 7 to day 1 ([4]; female SD rats): 0.942
- ratio of AUC(0-t) on day 7 to day 1 ([4]; male SD rats): 1.30
- accumulation after repeated administration ([4]; male and female SD rats, 12 mg/kg skin application, 7 days): no obvious accumulation
- Solid crystalline form after one week ([5]; 5° C., sealed (control)): Crystalline form D
- Purity (Peak area %) ([5]; 5° C., sealed (control)): 99.9 Peak area %
- Solid crystalline form after one week ([5]; 25° C./60% RH, open): Crystalline form D
- Purity (Peak area %) ([5]; 25° C./60% RH, open): 99.9 Peak area %
- Relative purity (%/Control) ([5]; 25° C./60% RH, open): 100.0 %/Control
- Solid crystalline form after one week ([5]; 40° C./75% RH, open): Crystalline form D
- Purity (Peak area %) ([5]; 40° C./75% RH, open): 99.9 Peak area %
- Relative purity (%/Control) ([5]; 40° C./75% RH, open): 100.0 %/Control

Source: patent US20240182442A1, “ANHYDROUS POLYMORPHS OF ANDROGEN RECEPTOR ANTAGONIST, PREPARATION METHOD THEREFOR, AND USE THEREOF” (SUZHOU KINTOR PHARMACEUTICALS, INC., priority 2021, published 2024)
